The assay concerns the target 5-hydroxytryptamine receptor 2A (Homo sapiens, UniProt P28223). The assay is described as follows: Antagonist activity at human 5HT2A receptor expressed in EC80 serotonin-stimulated CHOK1 cells by calcium mobilization assay. The assay is classed as functional, cell-based, CHO-K1.

Sequence of 5-hydroxytryptamine receptor 2A (P28223 whole entry): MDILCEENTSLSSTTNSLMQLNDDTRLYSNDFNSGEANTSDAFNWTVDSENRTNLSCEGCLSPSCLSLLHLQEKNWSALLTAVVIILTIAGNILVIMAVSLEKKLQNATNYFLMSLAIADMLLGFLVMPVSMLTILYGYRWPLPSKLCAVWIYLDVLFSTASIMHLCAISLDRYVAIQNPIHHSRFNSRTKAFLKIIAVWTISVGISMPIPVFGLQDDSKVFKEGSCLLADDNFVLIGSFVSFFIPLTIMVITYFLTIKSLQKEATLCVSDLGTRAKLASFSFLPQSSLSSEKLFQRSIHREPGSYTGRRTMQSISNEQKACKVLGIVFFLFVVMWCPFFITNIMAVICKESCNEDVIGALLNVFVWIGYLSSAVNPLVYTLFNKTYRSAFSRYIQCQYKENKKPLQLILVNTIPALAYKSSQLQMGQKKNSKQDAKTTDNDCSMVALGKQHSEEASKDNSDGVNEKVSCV

Turning to `COc1cc2c3c(c1OCc1ccccc1)-c1cc4c(cc1CC3N(C)CC2)OCO4` (stereo unspecified), the IC50 (usually the point on the concentration scale where inhibition reaches its midpoint) is 4.6 µM.

The values above are taken from ChEMBL document CHEMBL1138595, “(+/-)-Nantenine analogs as antagonists at human 5-HT(2A) receptors: C1 and flexible congeners” (Bioorg Med Chem Lett, 2009).
